Assay results reported in patent US20100284914A1 (priority 2005, published 2010).
Values after ≈ are worked out from the molar mass of the structure shown. Like-named read-outs stand apart in the source and are kept apart here.

Tests used:
[1] = tested on: Candida albicans CBS 562; type: cell-based; conditions: for MIC: read-out: MIC (column A)
[2] = tested on: Candida albicans 615; type: cell-based
[3] = tested on: Candida albicans 607; type: cell-based
[4] = tested on: Candida glabrata 4475 (resistant to azoles); type: cell-based; conditions: Nakaseomyces glabratus, 24 h, read-out: MIC
[5] = tested on: Candida glabrata 4787; type: cell-based
[6] = tested on: Candida glabrata 4681; type: cell-based; conditions: footnote c
[7] = tested on: Rhizopus oryzae; assay: microbe, parasite or virus in culture; type: cell-based; conditions: Rhizopus arrhizus
[8] = in vivo; conditions: male, ICR, mouse, iv
[9] = long chain lengths
[10] = Stability of the radiolabeled product by TLC; type: physicochemical; conditions: saline solution, after 10 hours, silica gel 60 F254
Experimental: The final product was tested on TLC (silica gel 60 F254) after 10 hours and found stable.

[11] = tested on: Sprague-Dawley rats; assay: PET imaging, bio-distribution; type: in vivo; conditions: normal female Sprague-Dawley rats, 50 μCi via tail vein, imaged after 30 minutes
Experimental: The exemplary [^18F] labeled amine fluorocyanoborane according to the present embodiments, Compound [^18F]K-I4, was injected into normal rats, and was monitored by a PET/CT Philips camera.
Four normal, female Sprague-Dawley rats (250-300 grams each) were injected via the tail vein with 50 μCi of Compound [^18F]K-I4 solution in saline (4.5 mCi/ml). Fifteen minutes after injection, the rats were anesthetized with 45 mg Ketamine and 24 mg Acepromazin, and after 30 minutes each rat was imaged for 15 minutes.

[12] = Candida glabrata 4475 (resistant to azoles), footnote c
[13] = CBS562, Candida albicans CBS 562, MIC-0, 24 h, 35° C.
[14] = Candida albicans 615, MIC-0, 24 h, 35° C., read-out: MIC
[15] = Candida albicans 607, MIC-0, 24 h, 35° C., read-out: MIC
[16] = Nakaseomyces glabratus, Candida glabrata 4787, read-out: MIC
[17] = Candida albicans, 615, 24 h, read-out: MIC
[18] = Candida albicans, 607, 24 h, read-out: MIC

Structure (SMILES) | MIC [4, 12] [µg/mL] | MIC [1, 13] [µM] | MIC [2, 14] [µM] | MIC [3, 15] [µM] | MIC [6] | further results
C[N+](C)(C)[BH-](F)C#N (stereo not drawn) | – | – | – | – | – | melting point: 53 °C
C[N+](C)(C)[B-](F)(F)C#N | – | – | – | – | – | melting point: 48 °C
COC(=O)[B-](F)(F)[N+](C)(C)C | – | – | – | – | – | melting point: 66 °C
C[C@@H]1[C@H](O)[C@@H](C)/C=C/C=C/C=C/C=C/C=C/C=C/C=C/[C@H](O[C@@H]2O[C@H](C)[C@@H](O)[C@H](N)[C@@H]2O)C[C@@H]2O[C@](O)(C[C@@H](O)C[C@@H](O)[C@H](O)CC[C@@H](O)C[C@@H](O)CC(=O)O[C@H]1C)C[C@H](O)[C@H]2C(=O)O [CAF1, Amphotericin B, reference compound] | – | – | – | – | – | MIC (column A) ([1]; Candida albicans CBS 562, MIC-0, 24 h, 35° C.): 0.54 µM (≈ 0.499 µg/mL); MIC ([2]; Candida albicans 615, MIC-0, 24 h, 35° C.): 0.27 µM (≈ 0.25 µg/mL); MIC ([3]; Candida albicans 607, MIC-0, 24 h, 35° C.): 0.27 µM (≈ 0.25 µg/mL)
C[N+](C)(C)[B-](Br)(Br)C#N [K-E, trimethyl-amine cyanodibromoborane] | > 0.5 | 1970 (≈ 504 µg/mL) | > 1970 | > 1970 | – | –
CCCCCCCCCCC[N+](C)(C)[BH-](Br)C#N (stereo not drawn) [K-I1, dimethyl-undecyl-amine cyanobromoborane] | 0.0078 (≈ 0.0246 µM) | 49 (≈ 15.5 µg/mL) | 49 (≈ 15.5 µg/mL) | 49 (≈ 15.5 µg/mL) | 7.8^c μg per liter | MIC [5, 16]: 15.6 µM (≈ 4.95 µg/mL); MIC [7]: 63 µg/mL (≈ 199 µM)
CCCCCCCCCCC[N+](C)(C)[B-](Br)(Br)C#N [K-I2, dimethyl-undecyl-amine cyanodibromoborane] | – | 39 (≈ 15.4 µg/mL) | 39 (≈ 15.4 µg/mL) | 39 (≈ 15.4 µg/mL) | 32^c μg per liter | MIC [5, 16]: 32 µM (≈ 12.7 µg/mL); MTD [8]: 73.1 µmol/kg
CCCCCCCCCCC[N+](C)(C)[B-](F)(Br)C#N (stereo not drawn) [K-I3, dimethyl-undecyl-amine cyanofluorobromoborane] | – | 7.8 (≈ 2.61 µg/mL) | – | – | – | MIC [7]: 63 µg/mL (≈ 188 µM)
CCCCCCCCCCC[N+](C)(C)[BH-](F)C#N (stereo not drawn) [K-I4, dimethyl-undecyl-amine cyanofluoroborane] | – | 64 (≈ 16.4 µg/mL) | 64 (≈ 16.4 µg/mL) | 64 (≈ 16.4 µg/mL) | – | –
C[N+](C)(CCCCCCCCCC[N+](C)(C)[BH-](Br)C#N)[BH-](Br)C#N (stereo not drawn) [K-J1, N,N,N′,N′-tetramethyldecane-1,10-diamine bis-cyanobromoborane] | 0.065 (≈ 0.14 µM) | 140 (≈ 64.9 µg/mL) | 140 (≈ 64.9 µg/mL) | 140 (≈ 64.9 µg/mL) | 65^c μg per liter | MIC [5, 16]: 65 µM (≈ 30.2 µg/mL)
C[N+](C)(CCCCCCCCCC[N+](C)(C)[B-](Br)(Br)C#N)[B-](Br)(Br)C#N [K-J2, N,N,N′,N′-tetramethyldecane-1,10-diamine bis-cyanodibromoborane] | – | – | – | – | 65^c μg per liter | MIC ([5]; Nakaseomyces glabratus, 4787, read-out: MIC): 65 µM (≈ 40.4 µg/mL); MIC [4]: 0.065 µg/mL (≈ 0.105 µM); MIC ([1]; Candida albicans, CBS562, 24 h): 104 µM (≈ 64.7 µg/mL); MIC [2, 17]: 104 µM (≈ 64.7 µg/mL); MIC [3, 18]: 104 µM (≈ 64.7 µg/mL)
C[N+](C)([BH2-]C(=O)O)CCCCCCCCCC[N+](C)(C)[BH2-]C(=O)O [K-J3, N,N,N′,N′-tetramethyldecane-1,10-diamine bis-carboxyborane] | 0.0312 (≈ 0.0907 µM) | 188 (≈ 64.7 µg/mL) | 907 (≈ 312 µg/mL) | 188 (≈ 64.7 µg/mL) | 65^c μg per liter | MIC [5, 16]: 65 µM (≈ 22.4 µg/mL)
C[N+](C)([BH2-]C#N)CCCCCCCCCC[N+](C)(C)[BH2-]C#N [K-J, N,N,N′,N′-tetramethyldecane-1,10-diamine bis-cyanoborane] | – | – | – | – | – | MIC [4]: 0.065 µg/mL (≈ 0.212 µM); MIC ([1]; Candida albicans, CBS562, 24 h): 408 µM (≈ 125 µg/mL); MIC [2, 17]: 817 µM (≈ 250 µg/mL); MIC [3, 18]: 408 µM (≈ 125 µg/mL)
CCCCCCC(C)(O)C[N+](C)(C)[BH2-]C#N (stereo not drawn) [K-O, 1-dimethylamino-2-methyl-octan-2-ol cyanoborane] | > 0.25 | 2210 (≈ 500 µg/mL) | 1100 (≈ 249 µg/mL) | 1100 (≈ 249 µg/mL) | – | –
CCCCCCCCCCCCCCCCC[N+](C)(C)[BH2-]C#N [K-S, heptadecyl-dimethyl-amine cyanoborane] | – | – | – | – | – | solubility [9]: solubility problems
CCCCCCCCCCC[N+](C)(C)[BH-]([18F])C#N (stereo not drawn) [[^18F]K-I4, [^18F]dimethyl-undecyl-amine cyanofluoroborane] | – | – | – | – | – | stability on TLC [10]: stable; bio-distribution by PET/CT [11]: uptake in the rat's bones
